These results are taken from patent publication US8101773B2, “Hydroxy methyl phenyl pyrazolyl urea compounds useful in the treatment of cancer” (Bayer Healthcare LLC, priority 2006, dated 2012).

In assay [1] the target is T1, mutant Bcr-Abl-T3151 kinase (Homo sapiens, UniProt P00519, T315I).
T1 sequence (P00519 242-493 T315I limits assumed): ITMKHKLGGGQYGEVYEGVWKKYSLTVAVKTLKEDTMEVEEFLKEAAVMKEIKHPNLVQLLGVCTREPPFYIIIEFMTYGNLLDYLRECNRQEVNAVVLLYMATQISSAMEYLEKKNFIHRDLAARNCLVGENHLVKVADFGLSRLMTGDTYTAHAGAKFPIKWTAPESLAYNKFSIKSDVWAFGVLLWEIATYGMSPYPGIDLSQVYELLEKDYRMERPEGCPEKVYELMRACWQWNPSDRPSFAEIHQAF
The experiment in a line: Bcr-Abl mutant T315I biochemical assay (MBP phosphorylation, 33P-ATP). Conditions: 50 μM ATP. As to the method:
(§1) Bcr-Abl Wild Type and Mutant T315I Biochemical Assay
(§2) Bcr-Abl-wt or mutant Bcr-Abl-T3151 kinase (0.17 nM) was incubated with Myelin Basic Protein (MBP, 2 μM) in assay buffer consisting of 50 mM Tris pH 7.5, 10 mM MgCl2, 1 mM EGTA, 2 mM DTT, 50 μM ATP and 0.4 μCi of ^33P-ATP. Test compounds were added at varying concentrations (final DMSO conc=1%) prior to the addition of ATP. The reaction mixture was incubated for 1 hour at 32° C. The reaction was then stopped by addition of phosphoric acid (final conc=1%) and samples were transferred to filtermats and read in a betaplate reader. Inhibition of MBP phosphorylation by Bcr-Abl-wt or Bcr-Abl-T3151 was analyzed by using a 4 parameter fit and in-house software.

Assay [2] can be described thus: In vitro tumor cell proliferation assay (Cell Titre-Glo), cell lines of interest. In kind it is cell-based. Conditions: 72 hours, Cell Titer Glo; read-out: antiproliferative properties (IC50) in one or more cell lines of interest. An excerpt:
In vitro Tumor Cell Proliferation Assay
A general note: Cellular ATP, detected with luciferase, serves as a proxy for viable cell number.

The target in assay [3] is T2, human recombinant c-Met intracellular kinase domain (Homo sapiens, UniProt P08581).
T2 construct: C-terminal HIS-tagged intracellular kinase domain (956 to 1390 amino acids) human recombinant c-Met; His tag (C)
As to the kind of experiment: c-Met biochemical assay, ELISA format. To be noted: 0.2 μM ATP. On the procedure: An ELISA format was used for the c-Met biochemical assay. This assay uses the C-terminal HIS-tagged intracellular kinase domain (956 to 1390 amino acids) human recombinant c-Met in 96-well plates. 96-Well plates (Costar #9018) coated with poly(GluTyr) (Sigma # P0275) were used in this assay. The poly(GluTyr) substrate coated on the plate was phosphorylated in a 100 μL reaction volume with 2 nM c-Met protein in an assay buffer (50 mM HEPES pH7.0, 5 mM MnCl2, 0.1% BSA, 0.5 mM sodium orthovanadate, 0.1% β-mercaptoethanol), with 0.2 μM ATP (Sigma #A7699). […] After 25 minutes of incubation, the assay reaction was stopped with 25 μL of 100 mM EDTA. The plates were then washed, and wells were treated with 100 μL of 80 ng/mL anti-4G10-HRP antibody (Upstate #16-105) for 1 h. Plates were washed one final time, and were developed with 100 μL 3,3′,5,5′-TMB (Sigma #T8665), and quenched with 100 μL 1M HCl. Plates were read on a Victor 2 plate reader (Perkin Elmer) and IC50 analysis and calculation were performed using in-house software.

In assay [4] the target is T3, Bcr-Abl-wt kinase (Homo sapiens, UniProt P00519).
T3 sequence (P00519 242-493 limits assumed): T1 sequence (P00519 242-493 T315I limits assumed) with I74T
The experiment in a line: Bcr-Abl wild type biochemical assay (MBP phosphorylation, 33P-ATP). Conditions: 50 μM ATP. As to the method: as §1, §2

For assay [5], the target named is T4, Flk-1 (murine VEGFR-2) kinase domain (Mus musculus, UniProt P35918).
T4 construct: 7 nM Flk-1 (kinase domain)
As to the kind of experiment: Flk-1 (murine VEGFR-2) biochemical assay, TR-FRET. To be noted: 10 μM ATP. As to the method:
Flk-1 (Murine VEGFR-2) Biochemical Assay
This assay was performed in 96-well opaque plates (Costar 3915) in the TR-FRET format. Reaction conditions were as follows: 10 μM ATP, 25 nM poly GT-biotin, 2 nM Eu-labelled phospho-Tyr Ab (PY20 Perkin Elmer), 10 nM APC (Perkin Elmer), 7 nM Flk-1 (kinase domain), 1% DMSO, 50 mM HEPES pH 7.5, 10 mM MgCl2, 0.1 mM EDTA, 0.015% BRIJ, 0.1 mg/mL BSA, 0.1% mercapto-ethanol). Reaction was initiated upon addition of enzyme. Final reaction volume in each well was 100 μL. Plates were read at both 615 and […] on a Perkin Elmer Victor V Multilabel counter at about 1.5-2.0 hours after reaction initiation. Signal was calculated as a ratio: (665 nm/615 nm)*10000 for each well.
Background: TR-FRET usually uses a lanthanide donor and a delayed reading to cut background.

In assay [6] the test system is early phase CML. Conditions: patients with early phase CML; cited from earlier work.
In assay [7] the test system is Bcr-Abl E255K mutant. Conditions: cited from earlier work.
Assay [8] deals with Bcr-Abl kinase. To be noted: greater potency than Imatinib; cited from earlier work.
The subject of assay [9] is Imatinib-resistant Bcr-Abl mutations. Conditions: cited from earlier work.

Where a chain is given by its changes, count along the chain named. Where a name gives a salt, the structure may show the parent alone.

T4 sequence (P35918 832-1160 limits assumed): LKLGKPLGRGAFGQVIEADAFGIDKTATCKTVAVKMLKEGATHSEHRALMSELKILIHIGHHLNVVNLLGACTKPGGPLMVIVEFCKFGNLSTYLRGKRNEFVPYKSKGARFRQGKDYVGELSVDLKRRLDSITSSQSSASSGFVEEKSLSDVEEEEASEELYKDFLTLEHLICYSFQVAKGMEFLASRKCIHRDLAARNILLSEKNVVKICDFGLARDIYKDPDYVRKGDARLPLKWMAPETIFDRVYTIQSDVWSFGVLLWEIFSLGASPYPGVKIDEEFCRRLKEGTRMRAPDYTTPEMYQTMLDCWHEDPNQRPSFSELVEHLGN
T2 sequence (P08581 956-1390): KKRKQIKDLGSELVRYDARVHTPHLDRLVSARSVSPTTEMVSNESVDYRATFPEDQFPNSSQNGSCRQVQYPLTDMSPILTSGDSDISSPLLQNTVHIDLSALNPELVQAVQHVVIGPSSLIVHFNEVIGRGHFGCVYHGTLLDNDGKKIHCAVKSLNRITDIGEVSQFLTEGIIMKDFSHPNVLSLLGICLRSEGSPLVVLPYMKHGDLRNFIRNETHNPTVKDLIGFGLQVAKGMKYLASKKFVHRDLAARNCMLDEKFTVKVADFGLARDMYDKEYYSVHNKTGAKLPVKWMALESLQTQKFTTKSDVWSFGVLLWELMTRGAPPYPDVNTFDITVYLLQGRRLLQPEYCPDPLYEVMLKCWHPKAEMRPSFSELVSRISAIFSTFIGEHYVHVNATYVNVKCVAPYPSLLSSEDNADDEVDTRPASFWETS

As for `CNC(=O)c1cc(Oc2ccc(NC(=O)Nc3cc(C(C)(C)C)nn3-c3cccc(COC(=O)[C@H](N)C(C)C)c3)c(F)c2)ccn1` [Example 9, 3-(3-tert-Butyl-5-{[(2-fluoro-4-{[2-(methylcarbamoyl)pyridin-4-yl]oxy}phenyl)-carbamoyl]amino}-1H-pyrazol-1-yl)benzyl D-valinate], the IC50 – broadly, the concentration that gives 50% inhibition – is less than 1 µM in [1]; less than 5 µM in assay [2]; less than 1 µM in assay [3]; less than 1 µM in [4]; less than 1 µM in assay [5].

Turning to `Cc1ccc(NC(=O)c2ccc(CN3CCN(C)CC3)cc2)cc1Nc1nccc(-c2cccnc2)n1` [Imatinib], the “degree of response at both haematological and cytogenetic levels” value in assay [6] is “greater than 90%”.

Take `CNC(=O)c1cc(Oc2ccc(NC(=O)Nc3cc(C(C)(C)C)nn3-c3cccc(COC(=O)[C@@H](N)C(C)C)c3)c(F)c2)ccn1` [Example 10, 3-(3-tert-Butyl-5-{[(2-fluoro-4-{[2-(methylcarbamoyl)pyridin-4-yl]oxy}-phenyl)carbamoyl]amino}-1H-pyrazol-1-yl)benzyl L-valinate]: the IC50 in [1], in assay [3], in assay [4] and in assay [5] was less than 1 µM each time.

For the compound `Cc1cn(-c2cc(NC(=O)c3ccc(C)c(Nc4nccc(-c5cccnc5)n4)c3)cc(C(F)(F)F)c2)cn1` [AMN-107, nilotinib], the “inhibition of E255K mutant in a biochemical assay” value in assay [7] is “somewhat weak inhibition”. Further, in assay [8], the “potency of inhibition of Bcr-Abl kinase activity relative to Imatinib” value is 20 fold. In addition, the “inhibition of Imatinib-resistant Bcr-Abl mutations” value in [9] is on record as “inhibit most Imatinib-resistant Bcr-Abl mutations, except for T315I”.

`CCC(=O)OCc1cccc(-n2nc(C(C)(C)C)cc2NC(=O)Nc2ccc(Oc3ccnc(C(=O)NC)c3)cc2F)c1` [Example 16, 3-(3-tert-butyl-5-{[(2-fluoro-4-{[2-(methylcarbamoyl)pyridin-4-yl]oxy}phenyl)carbamoyl]amino}-1H-pyrazol-1-yl)benzyl propionate]: the IC50 in assay [1], in [3], in assay [4] and in assay [5] was less than 1 µM each time.

Turning to `CNC(=O)c1cc(Oc2ccc(NC(=O)Nc3cc(C(C)(C)C)nn3-c3cccc(COC(=O)[C@H](NC(=O)OCC4c5ccccc5-c5ccccc54)C(C)C)c3)c(F)c2)ccn1` [Example 8, 3-(3-tert-Butyl-5-{[(2-fluoro-4-{[2-(methylcarbamoyl)pyridin-4-yl]oxy}phenyl)carbamoyl]amino}-1H-pyrazol-1-yl)benzyl-N-[(9H-fluoren-9-ylmethoxy)carbonyl]D valinate], the IC50 in assay [1] and in [3] was less than 20 µM in each case.

As for `CNC(=O)c1cc(Oc2ccc(NC(=O)Nc3cc(C(C)(C)C)nn3-c3cccc(COP(=O)(O)O)c3)c(F)c2)ccn1` [Example 13, 3-(3-tert-Butyl-5-{[(2-fluoro-4-{[2-(methylcarbamoyl)pyridin-4-yl]oxy}-phenyl)carbamoyl]amino}-1H-pyrazol-1-yl)benzyl dihydrogen phosphate dihydrochloride], the IC50 in [2] is less than 5 µM.

`CNC(=O)c1cc(Oc2ccc(NC(=O)Nc3cc(C(C)(C)C)nn3-c3cccc(COC(=O)CC(C)C)c3)c(F)c2)ccn1` [Example 17, 3-(3-tert-Butyl-5-{[(2-fluoro-4-{[2-(methylcarbamoyl)pyridin-4-yl]oxy}phenyl)carbamoyl]amino}-1H-pyrazol-1-yl)benzyl 3-methylbutanoate]: the IC50 in assay [1] and in assay [3] was less than 20 µM in each case.

On to `CNC(=O)c1cc(Oc2ccc(NC(=O)Nc3cc(C(C)(C)C)nn3-c3cccc(COC(=O)COC)c3)c(F)c2)ccn1` [Example 15, 3-(3-tert-Butyl-5-{[(2-fluoro-4-{[2-(methylcarbamoyl)pyridin-4-yl]oxy}phenyl)carbamoyl]amino}-1H-pyrazol-1-yl)benzyl methoxyacetate], for which the IC50 in assay [1], in assay [3], in [4] and in [5] was less than 1 µM each time.

For `CNC(=O)c1cc(Oc2ccc(NC(=O)Nc3cc(C(C)(C)C)nn3-c3cccc(COC(=O)CCC(=O)O)c3)c(F)c2)ccn1` [Example 14, 4-{[3-(3-tert-Butyl-5-{[(2-fluoro-4-{[2-(methylcarbamoyl)pyridin-4-yl]oxy}-phenyl)carbamoyl]amino}-1H-pyrazol-1-yl)benzyl]oxy}-4-oxobutanoic acid], the IC50 is less than 1 µM in assay [1]; less than 5 µM in assay [2]; less than 1 µM in assay [3]; less than 1 µM in assay [4]; less than 1 µM in assay [5].

For `CNC(=O)c1cc(Oc2ccc(NC(=O)Nc3cc(C(C)(C)C)nn3-c3cccc(COP(=O)(OC(C)(C)C)OC(C)(C)C)c3)c(F)c2)ccn1` [Example 12, Di-tert-butyl 3-(3-tert-butyl-5-{[(2-fluoro-4-{[2-(methylcarbamoyl)pyridin-4-yl]oxy}phenyl)carbamoyl]amino}-1H-pyrazol-1-yl)benzyl phosphate], the half-inhibitory concentration (IC50) in assay [1] was less than 20 µM; in assay [2], less than 5 µM; in [3], less than 20 µM.

With `CNC(=O)c1cc(Oc2ccc(NC(=O)Nc3cc(C(C)(C)C)nn3-c3cccc(COC(C)=O)c3)c(F)c2)ccn1` [Example 11, 3-(3-tert-Butyl-5-{[(2-fluoro-4-{[2-(methylcarbamoyl)pyridin-4-yl]oxy}-phenyl)carbamoyl]amino}-1H-pyrazol-1-yl)benzyl acetate], the IC50 in [1] is less than 1 µM; in assay [2] it was less than 5 µM; in assay [3] it was less than 1 µM; in [4], less than 1 µM; in [5] it was less than 1 µM.
